Biological target: T1, human TLR7 (Homo sapiens, UniProt Q9NYK1)
T1 construct: host or cells: HEK293 (HEK-Blue hTLR7)
T1 sequence (Q9NYK1 27-1049): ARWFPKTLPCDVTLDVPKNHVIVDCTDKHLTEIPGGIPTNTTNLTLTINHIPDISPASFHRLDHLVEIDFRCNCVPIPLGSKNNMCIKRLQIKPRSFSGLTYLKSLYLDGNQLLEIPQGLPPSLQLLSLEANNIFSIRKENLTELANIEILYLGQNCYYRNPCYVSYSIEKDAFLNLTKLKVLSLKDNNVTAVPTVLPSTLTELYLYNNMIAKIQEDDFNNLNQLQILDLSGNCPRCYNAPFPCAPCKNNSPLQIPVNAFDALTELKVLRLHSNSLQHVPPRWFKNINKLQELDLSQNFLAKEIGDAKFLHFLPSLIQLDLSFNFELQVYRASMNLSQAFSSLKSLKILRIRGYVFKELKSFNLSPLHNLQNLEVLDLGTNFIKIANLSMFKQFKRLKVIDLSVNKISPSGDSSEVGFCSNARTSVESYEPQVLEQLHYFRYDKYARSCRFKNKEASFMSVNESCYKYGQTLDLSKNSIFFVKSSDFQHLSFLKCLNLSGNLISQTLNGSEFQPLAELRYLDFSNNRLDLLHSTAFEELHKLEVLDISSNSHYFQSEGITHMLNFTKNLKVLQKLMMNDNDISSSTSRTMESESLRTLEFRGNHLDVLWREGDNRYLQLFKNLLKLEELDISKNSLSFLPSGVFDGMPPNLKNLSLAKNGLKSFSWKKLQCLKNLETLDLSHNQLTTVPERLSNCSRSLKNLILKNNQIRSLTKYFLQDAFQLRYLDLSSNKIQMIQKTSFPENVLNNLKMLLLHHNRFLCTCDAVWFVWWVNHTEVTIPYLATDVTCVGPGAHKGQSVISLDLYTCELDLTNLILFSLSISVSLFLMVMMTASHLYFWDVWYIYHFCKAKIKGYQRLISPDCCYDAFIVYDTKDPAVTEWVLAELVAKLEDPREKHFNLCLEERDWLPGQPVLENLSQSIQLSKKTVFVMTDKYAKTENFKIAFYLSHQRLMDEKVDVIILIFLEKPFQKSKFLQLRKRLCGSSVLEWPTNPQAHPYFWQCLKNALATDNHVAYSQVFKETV
Test: HEK293-Blue-hTLR-7 cells assay
Type: cell-based
Conditions: HEK293-Blue-hTLR7 cells, R848 stimulation, 20 hrs, SEAP reporter; read-out: HEK/hTLR7 IC50
Excerpt: A stable HEK293-Blue-hTLR-7 cell line was purchased from InvivoGen (Cat.#: hkb-htlr7, San Diego, California, USA). These cells were originally designed for studying the stimulation of human TLR7 by monitoring the activation of NF-κB. A SEAP (secreted embryonic alkaline phosphatase) reporter gene was placed under the control of the IFN-β minimal promoter fused to five NF-κB and AP-1-binding sites. The SEAP was induced by activating NF-κB and AP-1 via stimulating HEK-Blue hTLR7 cells with TLR7 ligands. Therefore the reporter expression was declined by TLR7 antagonist under the stimulation of a ligand, such as R848 (Resiquimod), for incubation of 20 hrs. The cell culture supernatant SEAP reporter activity was determined using QUANTI-Blue™ kit (Cat.#: rep-qb1, Invivogen, San Diego, Ca, USA) at a wavelength of 640 nm, a detection medium that turns purple or blue in the presence of alkaline phosphatase.
HEK293-Blue-hTLR7 cells were incubated at a density of 250,000~450,000 cells/mL in a volume of 170 µL in a 96-well plate in Dulbecco’s Modified Eagle’s medium (DMEM) containing 4.5 g/L glucose, 50 U/mL penicillin, […], […], 2 mM L-glutamine, 10% (v/v) heat-inactivated fetal bovine serum with addition of 20 µL test compound in a serial dilution in the presence of final DMSO at 1% and 10 µL of 20uM R848 in above DMEM, perform incubation under 37° C. in a CO2 incubator for 20 hrs. Then 20 µL of the supernatant from each well was incubated with 180 µL Quanti-blue substrate solution at 37° C. for 2 hrs and the absorbance was read at 620 \~655 nm using a spectrophotometer. The signaling pathway that TLR7 activation leads to downstream NF-κB activation has been widely accepted, and therefore similar reporter assay was modified for evaluating TLR7 antagonist.

Compound | IC50 [nM]
CCc1nc(N2CCN(Cc3cnc(N4CC5(CNCCO5)C4)nc3)CC2)ccc1-c1cc(C)c(=O)n(C)c1 [Example 1, 5-[2-ethyl-6-[4-[[2-(5-oxa-2,8-diazaspiro[3.5]nonan-2-yl)pyrimidin-5-yl]methyl]piperazin-1-yl]-3-pyridyl]-1,3-dimethyl-pyridin-2-one] | 9
CCc1nc(N2CCN(Cc3ccc(N4CC5(CNCCO5)C4)nc3)CC2)ccc1-c1cc(C)c(=O)n(C)c1 [Example 2, 5-[2-ethyl-6-[4-[[6-(5-oxa-2,8-diazaspiro[3.5]nonan-2-yl)-3 pyridyl]methyl]piperazin-1-yl]-3-pyridyl]-1,3-dimethyl-pyridin-2-one] | 10
CCc1nc(N2CCN(Cc3cnc(N4CC(C)(N)C4)nc3)CC2)ccc1-c1cc(C)c(=O)n(C)c1 [Example 3, 5-[6-[4-[[2-(3-amino-3-methyl-azetidin-1-yl)pyrimidin-5-yl]methyl]piperazin-1-yl]-2-ethyl-3-pyridyl]-1,3-dimethyl-pyridin-2-one] | 14
CCc1nc(N2CCN(Cc3cnc(N4CCOC[C@@H](N)C4)nc3)CC2)ccc1-c1cc(C)c(=O)n(C)c1 [Example 4, 5-[6-[4-[[2-[(6S)-6-amino-1,4-oxazepan-4-yl]pyrimidin-5-yl]methyl]piperazin-1-yl]-2-ethyl-3-pyridyl]-1,3-dimethyl-pyridin-2-one] | 24
CCc1nc(N2CCN(Cc3ccc(N4CCNCC4)cc3)CC2)ccc1-c1cc(C)c(=O)n(C)c1 [Example 5, 5-[2-ethyl-6-[4-[(4-piperazin-1-ylphenyl)methyl]piperazin-1-yl]-3-pyridyl]-1,3-dimethyl-pyridin-2-one] | 6
Cc1cc(-c2ccc(N3CCN(Cc4cnc(N5CC6(CNCCO6)C5)nc4)CC3)nc2C(C)C)cn(C)c1=O [Example 6, 5-[2-isopropyl-6-[4-[[2-(5-oxa-2,8-diazaspiro[3.5]nonan-2-yl)pyrimidin-5-yl]methyl]piperazin-1-yl]-3-pyridyl]-1,3-dimethyl-pyridin-2-one] | 5
Cc1cc(-c2ccc(N3CCN(Cc4ccc(N5CCNCC5)cn4)CC3)nc2C(C)C)cn(C)c1=O [Example 7, 5-[2-isopropyl-6-[4-[(5-piperazin-1-yl-2-pyridyl)methyl]piperazin-1-yl]-3-pyridyl]-1,3-dimethyl-pyridin-2-one] | 5
Cc1cc(-c2ccc(N3CCN(Cc4cnc(N5CCNCC5)cn4)CC3)nc2C(C)C)cn(C)c1=O [Example 8, 5-[2-isopropyl-6-[4-[(5-piperazin-1-ylpyrazin-2-yl)methyl]piperazin-1-yl]-3-pyridyl]-1,3-dimethyl-pyridin-2-one] | 5
Cc1cc(-c2ccc(N3CCN(Cc4cnc(N5CCNCC5)nc4)CC3)nc2C(C)C)cn(C)c1=O [Example 9, 5-[2-isopropyl-6-[4-[(2-piperazin-1-ylpyrimidin-5-yl)methyl]piperazin-1-yl]-3-pyridyl]-1,3-dimethyl-pyridin-2-one] | 7
Cc1cc(-c2ccc(N3CCN(Cc4cnc(N5CC(C)(N)C5)nc4)CC3)nc2C(C)C)cn(C)c1=O [Example 10, 5-[6-[4-[[2-(3-amino-3-methyl-azetidin-1-yl)pyrimidin-5-yl]methyl]piperazin-1-yl]-2-isopropyl-3-pyridyl]-1,3-dimethyl-pyridin-2-one] | 7
Cc1cc(-c2ccc(N3CCN(Cc4ccc(N5CCNCC5)nc4)CC3)nc2C(C)C)cn(C)c1=O [Example 11, 5-[2-isopropyl-6-[4-[(6-piperazin-1-yl-3-pyridyl)methyl]piperazin-1-yl]-3-pyridyl]-1,3-dimethyl-pyridin-2-one] | 8
Cc1cc(-c2ccc(N3CCN(Cc4ncc(N5CCNCC5)cn4)CC3)nc2C(C)C)cn(C)c1=O [Example 12, 5-[2-isopropyl-6-[4-[(5-piperazin-1-ylpyrimidin-2-yl)methyl]piperazin-1-yl]-3-pyridyl]-1,3-dimethyl-pyridin-2-one] | 8

More lines, now with the values ahead:

IC50 [nM] | Compound
12 | Cc1cc(-c2ccc(N3CCN(Cc4ccc(N5CCNCC5)cc4)CC3)nc2C(C)C)cn(C)c1=O [Example 13, 5-[2-isopropyl-6-[4-[(4-piperazin-1-ylphenyl)methyl]piperazin-1-yl]-3-pyridyl]-1,3-dimethyl-pyridin-2-one]
18 | Cc1cc(-c2ccc(N3CCN(Cc4cccc(N5CCNCC5)c4)CC3)nc2C(C)C)cn(C)c1=O [Example 14, 5-[2-isopropyl-6-[4-[(3-piperazin-1-ylphenyl)methyl]piperazin-1-yl]-3-pyridyl]-1,3-dimethyl-pyridin-2-one]
10 | Cc1cc(-c2ccc(N3CCN(c4ccc5c(n4)CCNC5)CC3)nc2C(C)C)cn(C)c1=O [Example 15, 5-[2-isopropyl-6-[4-(5,6,7,8-tetrahydro-1,6-naphthyridin-2-yl)piperazin-1-yl]-3-pyridyl]-1,3-dimethyl-pyridin-2-one]
2 | Cc1cc(-c2ccc(N3CCN4CCN(c5ccc(N6CCNCC6)nc5)CC4C3)nc2C(C)C)cn(C)c1=O (stereo not shown) [Example 16, 5-[2-isopropyl-6-[8-(6-piperazin-1-yl-3-pyridyl)-3,4,6,7,9,9a-hexahydro-1H-pyrazino[1,2-a]pyrazin-2-yl]-3-pyridyl]-1,3-dimethyl-pyridin-2-one]
33 | Cc1cc(-c2ccc(N3CCN(Cc4ccc(N5CCNCC5)cc4)CC3)nc2C(F)F)cn(C)c1=O [Example 17, 5-[2-(difluoromethyl)-6-[4-[(4-piperazin-1-ylphenyl)methyl]piperazin-1-yl]-3-pyridyl]-1,3-dimethyl-pyridin-2-one]
5 | Cc1cc(-c2ccc(N3CCC(N4CCNCC4)CC3)nc2C(C)C)cn(C)c1=O [Example 18, 5-[2-isopropyl-6-(4-piperazin-1-yl-1-piperidyl)-3-pyridyl]-1,3-dimethyl-pyridin-2-one]
3 | CCc1nc(N2CCN3CCN(c4cnc(N5CC6(CNCCO6)C5)nc4)CC3C2)ccc1-c1cc(C)c(=O)n(C)c1 (stereo not shown) [Example 19, 5-[2-ethyl-6-[2-[2-(5-oxa-2,8-diazaspiro[3.5]nonan-2-yl)pyrimidin-5-yl]-3,4,6,7,9,9a-hexahydro-1H-pyrazino[1,2-a]pyrazin-8-yl]-3-pyridyl]-1,3-dimethyl-pyridin-2-one]

From patent US20230295109A1, “PYRIDINONE COMPOUNDS FOR THE TREATMENT OF AUTOIMMUNE DISEASE” (F. Hoffmann-La Roche AG, priority 2020, published 2023)
